In US20170166598A1, “HETEROARYL COMPOUNDS FOR KINASE INHIBITION” (ARIAD PHARMACEUTICALS, INC., priority 2014, published 2017):

Experiments:
Assay type in all cases: cell-based
[1] = target: T1, human EGFR exon 20 insertion NPG (H773_V774insNPG) (Homo sapiens, UniProt P00533, INS772GNP); test: Ba/F3-EGFR-Exon20-NPG cell anti-proliferative assay (CellTiter 96 MTS, 72 h); conditions: Ba/F3-EGFR-Exon20-NPG cells
T1 construct: expressed in transfected cells; host or cells: Ba/F3 (murine pro-B) cells transduced with lentivirus from pLVX-IRES puro
T1 sequence (P00533 with tags, fused parts or gaps INS772GNP): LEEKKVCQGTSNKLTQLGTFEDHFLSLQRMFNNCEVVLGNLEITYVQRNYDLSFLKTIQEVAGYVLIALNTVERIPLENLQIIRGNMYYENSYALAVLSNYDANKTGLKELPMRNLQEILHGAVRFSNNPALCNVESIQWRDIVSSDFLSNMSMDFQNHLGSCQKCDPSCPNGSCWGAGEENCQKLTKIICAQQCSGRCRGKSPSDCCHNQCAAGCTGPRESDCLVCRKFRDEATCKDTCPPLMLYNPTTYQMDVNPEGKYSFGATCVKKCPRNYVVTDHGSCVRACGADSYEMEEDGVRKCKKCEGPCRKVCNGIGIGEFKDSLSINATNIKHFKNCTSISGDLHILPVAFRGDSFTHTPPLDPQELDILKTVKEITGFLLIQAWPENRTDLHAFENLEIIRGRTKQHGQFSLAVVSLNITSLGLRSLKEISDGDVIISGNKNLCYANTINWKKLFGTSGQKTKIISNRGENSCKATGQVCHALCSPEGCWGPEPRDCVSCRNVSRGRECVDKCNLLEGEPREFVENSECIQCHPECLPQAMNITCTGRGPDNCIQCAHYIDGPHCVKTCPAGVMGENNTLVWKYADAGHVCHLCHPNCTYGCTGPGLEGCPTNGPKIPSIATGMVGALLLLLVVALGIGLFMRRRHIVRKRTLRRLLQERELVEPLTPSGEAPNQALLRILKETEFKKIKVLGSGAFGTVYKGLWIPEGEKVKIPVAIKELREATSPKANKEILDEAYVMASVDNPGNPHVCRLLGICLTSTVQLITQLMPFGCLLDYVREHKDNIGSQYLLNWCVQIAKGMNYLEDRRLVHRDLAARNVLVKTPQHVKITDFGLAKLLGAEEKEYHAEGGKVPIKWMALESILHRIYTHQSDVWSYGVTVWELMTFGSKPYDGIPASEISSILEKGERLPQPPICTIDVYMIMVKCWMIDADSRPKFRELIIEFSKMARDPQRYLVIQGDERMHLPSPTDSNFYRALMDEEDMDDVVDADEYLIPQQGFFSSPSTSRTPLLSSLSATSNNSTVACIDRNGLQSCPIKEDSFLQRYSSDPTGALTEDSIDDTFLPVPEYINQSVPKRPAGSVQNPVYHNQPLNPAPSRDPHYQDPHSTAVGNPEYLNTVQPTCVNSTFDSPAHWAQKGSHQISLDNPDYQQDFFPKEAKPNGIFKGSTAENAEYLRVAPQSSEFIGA
Description: An expression vector, pLVX-IRES puro (Clontech) coding for human EGFR exon 20 insertions NPG (H773_V774insNPG) or ASV (V769_D770insASV), was transfected into HEK293 cells by the Trans-Lentiviral ORF Packaging System (Thermo Scientific), to produce virus encoding EGFR exon 20 insertions. Ba/F3 (DSMZ) cells maintained in RPMI 1640 medium supplemented with 10% fetal bovine serum, 200 μM L-glutamine/l 200 μg/mL penicillin/200 μg/mL streptomycin (Life Technology) and 10 ng/mL IL-3 (R&D system), were infected by EGFR Exon20 virus and subsequently selected by puromycin (Life Technology) selection and IL-3 depletion. […] The anti-proliferative activity of compounds were determined as follows: BaF3-EGFR-Exon20 cells (NPG or ASV) seeded in 96 well plates (2500 cells/well) were treated with test compound (dissolved in DMSO) at a series of concentrations (4-fold dilution, top concentration: 10,000 nM). The plates were incubated for 72 h in a 37° C. incubator with 5% CO2, and the number of viable cells in each well were measured indirectly by CellTiter 96® Aqueous One Solution Cell Proliferation Assay (Promega) This assay is a colorimetric method for determining the number of viable cells through measurement of their metabolic activity by detection of enzymatic conversion of tetrazolium salts into blue formazan derivatives. Reagent (20 μL) was added into each well, and the plates were returned to the incubator for 2 h. The absorbance in each well was then measured at 490 nm using an Envision plate reader (Perkin Elmer).

[2] = target: T2, human EGFR E746-A750 deletion and T790M Mutation (Homo sapiens, UniProt P00533, DEL746-750/T790M); test: Ba/F3-EGFR-Del/T790M cell anti-proliferative assay (CellTiter 96 MTS, 72 h); conditions: Ba/F3-EGFR-Del/T790M cells
T2 construct: expressed in transfected cells; host or cells: Ba/F3 (murine pro-B) cells transduced with lentivirus from pLVX-IRES puro
T2 sequence (P00533 with tags, fused parts or gaps DEL746-750/T790M): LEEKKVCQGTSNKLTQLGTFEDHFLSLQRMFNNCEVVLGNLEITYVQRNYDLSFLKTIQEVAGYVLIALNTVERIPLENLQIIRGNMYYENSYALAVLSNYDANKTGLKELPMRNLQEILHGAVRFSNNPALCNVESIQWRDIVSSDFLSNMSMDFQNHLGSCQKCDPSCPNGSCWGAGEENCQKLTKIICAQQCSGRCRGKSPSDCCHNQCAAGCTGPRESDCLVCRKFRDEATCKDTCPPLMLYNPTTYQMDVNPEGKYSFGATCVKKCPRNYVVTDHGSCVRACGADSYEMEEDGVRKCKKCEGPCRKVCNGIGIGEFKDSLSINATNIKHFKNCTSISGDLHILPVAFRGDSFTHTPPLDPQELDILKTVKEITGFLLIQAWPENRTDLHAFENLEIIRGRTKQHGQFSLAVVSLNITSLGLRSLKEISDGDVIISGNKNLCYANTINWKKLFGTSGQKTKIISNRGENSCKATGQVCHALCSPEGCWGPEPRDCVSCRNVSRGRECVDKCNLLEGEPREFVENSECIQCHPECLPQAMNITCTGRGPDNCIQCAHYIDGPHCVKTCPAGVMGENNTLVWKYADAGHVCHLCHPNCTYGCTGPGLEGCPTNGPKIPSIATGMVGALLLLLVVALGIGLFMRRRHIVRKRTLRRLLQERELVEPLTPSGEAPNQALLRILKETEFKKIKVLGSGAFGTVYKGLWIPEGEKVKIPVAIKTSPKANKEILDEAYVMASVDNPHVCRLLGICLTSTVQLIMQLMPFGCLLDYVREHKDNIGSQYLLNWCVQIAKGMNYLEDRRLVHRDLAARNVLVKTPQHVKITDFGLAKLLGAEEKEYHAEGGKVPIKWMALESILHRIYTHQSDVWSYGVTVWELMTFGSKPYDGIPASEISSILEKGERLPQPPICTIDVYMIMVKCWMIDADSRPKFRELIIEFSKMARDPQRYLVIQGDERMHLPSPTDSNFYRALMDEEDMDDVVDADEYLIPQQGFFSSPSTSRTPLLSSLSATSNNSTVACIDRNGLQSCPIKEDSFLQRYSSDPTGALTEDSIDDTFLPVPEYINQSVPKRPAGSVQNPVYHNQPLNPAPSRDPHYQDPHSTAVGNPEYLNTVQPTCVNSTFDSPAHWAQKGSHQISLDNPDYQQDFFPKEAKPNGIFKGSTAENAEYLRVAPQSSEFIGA
Description: An expression vector, pLVX-IRES puro (Clontech) coding for human EGFR E746-A750 deletion and T790M Mutation, was transfected into HEK293 cells by the Trans-Lentiviral ORF Packaging System (Thermo Scientific), to produce virus encoding EGFR exon 19 deletion and T790M mutations. Ba/F3 (DSMZ) cells maintained in RPMI 1640 medium supplemented with 10% fetal bovine serum, 200 μM L-glutamine/200 μg/mL penicillin/200 μg/mL streptomycin (Life Technology) and 10 ng/mL IL-3 (R&D system), were infected by EGFR E746-A750 deletion and T790M Mutation virus and subsequently selected by puromycin (Life Technology) selection and IL-3 depletion. […] The anti-proliferative activity of compounds was determined as follows: BaF3-EGFR-Del/T790M cells seeded in 96 well plates (2500 cells/well) were treated with test compound (dissolved in DMSO) at a series of concentrations (4-fold dilution, top concentration: 10,000 nM). The plates were incubated for 72 h in a 37° C. incubator with 5% CO2, and the number of viable cells in each well were measured indirectly by CellTiter 96® Aqueous One Solution Cell Proliferation Assay (Promega; this assay is a colorimetric method for determining the number of viable cells through measurement of their metabolic activity by detection of enzymatic conversion of tetrazolium salts into blue formazan derivatives). Reagent (20 μL) was added into each well, and the plates were returned to the incubator for 2 h. The absorbance in each well was then measured at 490 nm using an Envision plate reader (Perkin Elmer).

[3] = target: T3, Her2 exon 20 YVMA insertion (A775_G776ins YVMA) (Homo sapiens, UniProt P04626, INS775YVMA); test: Ba/F3-Her2 Exon20 YVMA cell anti-proliferative assay (CellTiter 96 MTS, 72 h); conditions: Ba/F3-Her2 Exon20 YVMA cells
T3 construct: expressed in transfected cells; host or cells: Ba/F3 (murine pro-B) cells transduced with lentivirus from pLVX-IRES puro
T3 sequence (P04626 with tags, fused parts or gaps INS775YVMA): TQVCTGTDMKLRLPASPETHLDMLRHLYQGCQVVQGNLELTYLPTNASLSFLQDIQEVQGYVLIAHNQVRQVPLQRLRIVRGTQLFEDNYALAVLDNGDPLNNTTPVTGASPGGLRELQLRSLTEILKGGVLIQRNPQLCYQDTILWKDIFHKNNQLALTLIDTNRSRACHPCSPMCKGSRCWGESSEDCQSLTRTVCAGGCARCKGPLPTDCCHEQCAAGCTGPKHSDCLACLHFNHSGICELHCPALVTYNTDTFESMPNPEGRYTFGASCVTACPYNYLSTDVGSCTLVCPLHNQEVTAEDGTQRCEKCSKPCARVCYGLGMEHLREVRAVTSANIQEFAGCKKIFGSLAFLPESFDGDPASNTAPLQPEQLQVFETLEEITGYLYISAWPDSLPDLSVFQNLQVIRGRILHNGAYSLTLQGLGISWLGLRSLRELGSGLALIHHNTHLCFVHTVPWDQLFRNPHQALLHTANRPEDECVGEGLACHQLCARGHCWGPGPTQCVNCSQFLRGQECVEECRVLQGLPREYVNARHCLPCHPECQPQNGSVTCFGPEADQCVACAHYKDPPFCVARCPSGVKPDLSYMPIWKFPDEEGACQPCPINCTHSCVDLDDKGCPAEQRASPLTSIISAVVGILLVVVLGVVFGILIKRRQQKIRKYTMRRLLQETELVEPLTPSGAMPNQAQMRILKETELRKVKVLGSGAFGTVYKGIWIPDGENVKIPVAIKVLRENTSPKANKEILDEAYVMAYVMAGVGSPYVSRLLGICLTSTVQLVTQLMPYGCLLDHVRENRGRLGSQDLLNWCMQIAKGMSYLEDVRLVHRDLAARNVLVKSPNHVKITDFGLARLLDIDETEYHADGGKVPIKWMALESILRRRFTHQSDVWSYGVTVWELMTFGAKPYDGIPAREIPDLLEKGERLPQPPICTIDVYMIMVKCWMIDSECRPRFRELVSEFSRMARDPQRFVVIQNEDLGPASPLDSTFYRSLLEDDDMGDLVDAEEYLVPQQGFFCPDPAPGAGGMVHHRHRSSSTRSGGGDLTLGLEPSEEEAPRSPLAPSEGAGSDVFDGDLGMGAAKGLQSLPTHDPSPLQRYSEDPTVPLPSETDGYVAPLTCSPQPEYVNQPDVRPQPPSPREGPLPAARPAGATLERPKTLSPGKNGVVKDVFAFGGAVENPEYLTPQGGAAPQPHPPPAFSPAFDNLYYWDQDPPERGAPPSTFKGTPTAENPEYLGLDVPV
Description: A compound's ability in selectively inhibiting Her2 exon 20 YVMA insertion mutations can be assessed using Ba/F3 cells, a murine pro-B cell line, which have been transduced with Her2 Exon20 YVMA insertions. An expression vector, pLVX-IRES puro (Clontech) coding for […] (A775_G776ins YVMA), was transfected into HEK293 cells by the Trans-Lentiviral ORF Packaging System (Thermo Scientific), to produce virus encoding EGFR exon 20 insertions. Ba/F3 (DSMZ) cells maintained in RPMI 1640 medium supplemented with 10% fetal bovine serum, 200 μM L-glutamine/200 μg/mL penicillin/200 μg/mL streptomycin (Life Technology) and 10 ng/mL IL-3 (R&D system), were infected by EGFR Exon20 virus and subsequently selected by puromycin (Life Technology) selection and IL-3 depletion. Ba/F3 cells expressing Her2 Exon20 YVMA insertions (named Ba/F3-Her2 Exon20 YVMA) can proliferate in the absence of IL-3. The anti-proliferative activity of compounds was determined as follows: BaF3-Her2 Exon20 YVMA cells seeded in 96 well plates (2500 cells/well) were treated with test compound (dissolved in DMSO) at a series of concentrations (4-fold dilution, top concentration: 10,000 nM). The plates were incubated for 72 h in a 37° C. incubator with 5% CO2, and the number of viable cells in each well were measured indirectly by CellTiter 96@ Aqueous One Solution Cell Proliferation Assay (Promega; this assay is a colorimetric method for determining the number of viable cells through measurement of their metabolic activity by detection of enzymatic conversion of tetrazolium salts into blue formazan derivatives). Reagent (20 μL) was added into each well, and the plates were returned to the incubator for 2 h. The absorbance in each well was then measured at 490 nm using an Envision plate reader (Perkin Elmer).

SMILES	IC50 [1] [nM]	IC50 [3] [nM]	EGFR exon 19 deletion and exon 20 T790M mutation IC50 [2]
C=CC(=O)Nc1cc(Nc2ncc(Cl)c(-c3cn4c5c(cccc35)CCC4)n2)c(OC)cc1OCCN1CCN(C)CC1 [Example 21, N-(5-((5-chloro-4-(5,6-dihydro-4H-pyrrolo[3,2,1-ij]quinolin-1-yl)pyrimidin-2-yl)amino)-4-methoxy-2-(2-(4-methylpiperazin-1-yl)ethoxy)phenyl)acrylamide]	100 to 500	> 1000	A (IC50 value for the indicated mutant below about 100 nM)
C=CC(=O)Nc1cc(Nc2ncc(Cl)c(-c3cn4c5c(cccc35)CCC4)n2)c(OC)cc1OCCN1CCOCC1 [Example 22, N-(5-((5-chloro-4-(5,6-dihydro-4H-pyrrolo[3,2,1-ij]quinolin-1-yl)pyrimidin-2-yl)amino)-4-methoxy-2-(2-morpholinoethoxy)phenyl)acrylamide]	100 to 500	> 1000	A (IC50 value for the indicated mutant below about 100 nM)
C=CC(=O)Nc1cc(Nc2ncc(CC)c(-c3cn4c5c(cccc35)CCC4)n2)c(OC)cc1N1CCN(C(C)=O)CC1 [Example 3, N-(2-(4-acetylpiperazin-1-yl)-5-((4-(5,6-dihydro-4H-pyrrolo[3,2,1-ij]quinolin-1-yl)-5-ethylpyrimidin-2-yl)amino)-4-methoxyphenyl)acrylamide]	> 1000	> 1000	B (IC50 value for the indicated mutant between about 100 to about 500 nM)
C=CC(=O)Nc1cc(Nc2ncc(C3CC3)c(-c3cn4c5c(cccc35)CCC4)n2)c(OC)cc1N(C)CCN(C)C [Example 28, N-(5-((5-cyclopropyl-4-(5,6-dihydro-4H-pyrrolo[3,2,1-ij]quinolin-1-yl)pyrimidin-2-yl)amino)-2-((2-(dimethylamino)ethyl)(methyl)amino)-4-methoxyphenyl)acrylamide]	< 100	500 to 1000	A (IC50 value for the indicated mutant below about 100 nM)
C=CC(=O)Nc1cc(Nc2ncc(Cl)c(-c3cn4c5c(cccc35)CCC4)n2)c(OC)cc1OCCN1CCCC1 [Example 20]	100 to 500	500 to 1000	A (IC50 value for the indicated mutant below about 100 nM)

Second part, led by results:

IC50 [1] [nM]	IC50 [3] [nM]	SMILES	EGFR exon 19 deletion and exon 20 T790M mutation IC50 [2]
100 to 500	500 to 1000	C=CC(=O)Nc1cc(Nc2ncc(C(C)C)c(-c3cn4c5c(cccc35)CCC4)n2)c(OC)cc1N(C)CCN(C)C [Example 30, N-(5-((4-(5,6-dihydro-4H-pyrrolo[3,2,1-ij]quinolin-1-yl)-5-isopropylpyrimidin-2-yl)amino)-2-((2-(dimethylamino)ethyl)(methyl)amino)-4-methoxyphenyl)acrylamide]	A (IC50 value for the indicated mutant below about 100 nM)
< 100	100 to 500	C=CC(=O)Nc1cc(Nc2ncc(Cl)c(-c3cn4c5c(cccc35)CCC4)n2)c(C)cc1N(C)CCN(C)C [Example 13, N-(5-((5-chloro-4-(5,6-dihydro-4H-pyrrolo[3,2,1-ij]quinolin-1-yl)pyrimidin-2-yl)amino)-2-((2-(dimethylamino)ethyl)(methyl)amino)-4-methylphenyl)acrylamide]	A (IC50 value for the indicated mutant below about 100 nM)
–	100 to 500	C=CC(=O)Nc1cc(Nc2nccc(-c3cn4c5c(cccc35)OCC4)n2)c(OC)cc1N(C)CCN(C)C [Example 77, N-(5-((4-(2,3-dihydro-[1,4]oxazino[2,3,4-hi]indol-6-yl)pyrimidin-2-yl)amino)-2-((2-(dimethylamino)ethyl)(methyl)amino)-4-methoxyphenyl)acrylamide]	–
